Laboratory results published in ChEMBL document CHEMBL4725429, “Discovery and Evaluation of Pyrazolo[3,4-d]pyridazinone as a Potent and Orally Active Irreversible BTK Inhibitor” (ACS Med Chem Lett, 2020).

Experiments:
[1] = target: Tyrosine-protein kinase BTK (Homo sapiens, UniProt Q06187); assay: Inhibition of recombinant human His-tagged full length BTK expressed in baculovirus expression system using TK1 as substrate incubated for 60 mins by HTRF assay
[2] = Protein binding in mouse plasma at 2 uM incubated for 4 hrs by LC-MS/MS analysis; type: ADME, cell-free; details: read-out: PPB (converted)
[3] = Toxicity in mouse assessed as drug tolerance at 3 and 10 mg/kg, po administered for 14 days and observed for 21 days; type: organism-based; details: in vivo, 336 h, dose 3-10 mg/kg, time 14 day
[4] = Protein binding in rat plasma at 2 uM incubated for 4 hrs by LC-MS/MS analysis; type: ADME, cell-free; details: read-out: PPB (converted)
[5] = target: Cytochrome P450 2C9 (Homo sapiens, UniProt P11712); assay: Inhibition of human liver microsome CYP2C9 using diclofenac as substrate preincubated for 10 mins followed by substrate and NADPH addition and measured after 10 mins by LC-MS/MS analysis
Cytochrome P450 2C9, sequence (P11712 whole entry): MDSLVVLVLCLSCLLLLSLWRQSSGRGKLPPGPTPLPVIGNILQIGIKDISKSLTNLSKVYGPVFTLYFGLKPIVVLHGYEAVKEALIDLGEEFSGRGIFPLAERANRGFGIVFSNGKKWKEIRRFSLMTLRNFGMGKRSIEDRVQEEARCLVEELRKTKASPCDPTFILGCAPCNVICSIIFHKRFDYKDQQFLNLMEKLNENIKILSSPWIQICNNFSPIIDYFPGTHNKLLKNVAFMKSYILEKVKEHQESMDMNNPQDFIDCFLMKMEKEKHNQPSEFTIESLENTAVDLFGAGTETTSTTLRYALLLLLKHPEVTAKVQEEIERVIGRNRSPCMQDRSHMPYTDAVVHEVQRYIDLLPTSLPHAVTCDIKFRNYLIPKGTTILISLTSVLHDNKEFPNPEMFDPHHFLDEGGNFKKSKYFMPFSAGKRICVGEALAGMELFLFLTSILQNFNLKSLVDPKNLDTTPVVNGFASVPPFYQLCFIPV

[6] = Cmax in Sprague-Dawley rat at 2 mg/kg, iv measured upto 24 hrs by LC-MS/MS analysis; type: ADME, organism-based; set-up: route intravenous, time <=24; details: in vivo
[7] = Protein binding in human plasma at 2 uM incubated for 4 hrs by LC-MS/MS analysis; type: ADME, cell-free; details: read-out: PPB (converted)
[8] = target: T1, Cytochrome P450 1A2 (Homo sapiens, UniProt P05177); assay: Inhibition of human liver microsome CYP1A2 using phenacetin as substrate preincubated for 10 mins followed by substrate and NADPH addition and measured after 10 mins by LC-MS/MS analysis
T1 sequence (P05177 whole entry): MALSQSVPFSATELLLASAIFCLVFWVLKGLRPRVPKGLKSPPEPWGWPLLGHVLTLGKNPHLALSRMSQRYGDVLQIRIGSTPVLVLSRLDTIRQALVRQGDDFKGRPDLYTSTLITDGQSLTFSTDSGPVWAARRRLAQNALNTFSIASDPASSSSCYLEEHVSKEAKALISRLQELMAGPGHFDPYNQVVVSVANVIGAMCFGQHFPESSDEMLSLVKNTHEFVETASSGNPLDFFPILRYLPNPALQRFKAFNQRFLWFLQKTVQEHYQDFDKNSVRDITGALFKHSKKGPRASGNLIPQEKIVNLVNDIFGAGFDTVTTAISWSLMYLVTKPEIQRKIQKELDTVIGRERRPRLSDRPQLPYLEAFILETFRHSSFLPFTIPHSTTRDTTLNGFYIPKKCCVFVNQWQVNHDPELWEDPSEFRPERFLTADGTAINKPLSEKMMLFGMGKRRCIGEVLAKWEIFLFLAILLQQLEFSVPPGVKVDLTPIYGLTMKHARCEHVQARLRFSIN

[9] = tested on: Mus musculus; assay: Antiarthritic activity in po dosed collagen-induced arthritis mouse model assessed as clinical score administered for 14 days and measured for 21 days after dosing; type: functional, organism-based; details: dose mg/kg 3-10, time 14.0 day
[10] = Oral bioavailability in Sprague-Dawley rat at 10 mg/kg measured upto 24 hrs by LC-MS/MS analysis; type: ADME, organism-based; details: in vivo
[11] = target: Cytochrome P450 3A4 (Homo sapiens, UniProt P08684); assay: Inhibition of human liver microsome CYP3A4 using midazolam as substrate preincubated for 10 mins followed by substrate and NADPH addition and measured after 10 mins by LC-MS/MS analysis
Cytochrome P450 3A4, sequence (P08684 whole entry): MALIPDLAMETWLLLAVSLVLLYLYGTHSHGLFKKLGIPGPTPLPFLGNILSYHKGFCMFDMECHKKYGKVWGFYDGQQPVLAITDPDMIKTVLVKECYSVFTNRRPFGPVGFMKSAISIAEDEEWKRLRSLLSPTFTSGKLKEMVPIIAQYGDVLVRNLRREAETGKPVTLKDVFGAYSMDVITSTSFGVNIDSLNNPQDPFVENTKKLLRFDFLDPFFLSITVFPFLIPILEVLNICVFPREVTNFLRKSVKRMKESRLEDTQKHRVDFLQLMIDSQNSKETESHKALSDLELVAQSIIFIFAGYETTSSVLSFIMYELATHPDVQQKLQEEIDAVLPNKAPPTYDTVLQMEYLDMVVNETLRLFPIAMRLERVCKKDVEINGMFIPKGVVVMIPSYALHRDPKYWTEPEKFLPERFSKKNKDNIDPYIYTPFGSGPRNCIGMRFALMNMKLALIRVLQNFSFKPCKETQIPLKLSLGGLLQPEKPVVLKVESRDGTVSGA

[12] = Clearance in Sprague-Dawley rat at 2 mg/kg, iv measured upto 24 hrs by LC-MS/MS analysis; details: in vivo
[13] = target: Cytochrome P450 2D6 (Homo sapiens, UniProt P10635); assay: Inhibition of human liver microsome CYP2D6 using dextromethorphan as substrate preincubated for 10 mins followed by substrate and NADPH addition and measured after 10 mins by LC-MS/MS analysis
Cytochrome P450 2D6, sequence (P10635 whole entry): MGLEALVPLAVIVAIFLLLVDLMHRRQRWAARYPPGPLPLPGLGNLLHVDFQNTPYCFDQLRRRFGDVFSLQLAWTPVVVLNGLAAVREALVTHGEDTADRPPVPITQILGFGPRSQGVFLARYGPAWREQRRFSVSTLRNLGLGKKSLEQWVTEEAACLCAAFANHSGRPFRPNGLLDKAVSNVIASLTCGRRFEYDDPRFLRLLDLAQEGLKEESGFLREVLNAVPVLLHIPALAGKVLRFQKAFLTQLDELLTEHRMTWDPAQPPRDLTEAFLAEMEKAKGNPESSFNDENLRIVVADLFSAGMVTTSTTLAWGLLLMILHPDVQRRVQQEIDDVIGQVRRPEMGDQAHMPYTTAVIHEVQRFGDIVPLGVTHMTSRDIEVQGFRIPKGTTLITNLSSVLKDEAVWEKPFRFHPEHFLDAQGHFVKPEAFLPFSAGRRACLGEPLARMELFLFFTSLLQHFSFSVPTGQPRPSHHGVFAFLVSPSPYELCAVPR

[14] = Toxicity in mouse assessed as body weight loss at 3 and 10 mg/kg, po administered for 14 days and observed for 21 days; type: organism-based; details: in vivo, 336 h, dose 3-10 mg/kg, time 14 day
[15] = target: Cytochrome P450 2C19 (Homo sapiens, UniProt P33261); assay: Inhibition of human liver microsome CYP2C19 using S-mephenytoin as substrate preincubated for 10 mins followed by substrate and NADPH addition and measured after 10 mins by LC-MS/MS analysis
Cytochrome P450 2C19, sequence (P33261 whole entry): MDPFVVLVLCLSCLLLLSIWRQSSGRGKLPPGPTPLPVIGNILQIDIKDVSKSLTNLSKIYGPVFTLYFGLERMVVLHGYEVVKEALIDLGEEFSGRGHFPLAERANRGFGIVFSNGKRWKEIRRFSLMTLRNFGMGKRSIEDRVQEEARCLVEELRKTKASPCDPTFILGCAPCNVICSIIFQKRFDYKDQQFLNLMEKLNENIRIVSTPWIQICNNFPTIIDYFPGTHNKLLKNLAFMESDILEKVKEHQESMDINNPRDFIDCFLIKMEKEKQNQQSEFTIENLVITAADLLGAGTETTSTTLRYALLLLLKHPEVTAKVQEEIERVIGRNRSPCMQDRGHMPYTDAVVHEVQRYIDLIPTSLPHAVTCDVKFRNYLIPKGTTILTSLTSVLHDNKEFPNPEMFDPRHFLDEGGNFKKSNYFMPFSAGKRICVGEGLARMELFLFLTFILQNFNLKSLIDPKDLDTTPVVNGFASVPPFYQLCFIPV

[16] = Cmax in BALB/c mouse 2 mg/kg, po measured upto 24 hrs by LC-MS/MS analysis; type: ADME, organism-based; set-up: route oral, dose 2 mg/kg, time <=24; details: in vivo
[17] = Half life in BALB/c mouse at 1 mg/kg, iv measured upto 24 hrs by LC-MS/MS analysis; type: ADME, organism-based; details: in vivo
[18] = AUC (0 to last) in BALB/c mouse at 1 mg/kg, iv measured upto 24 hrs by LC-MS/MS analysis; type: ADME, organism-based; set-up: route intravenous, dose 1 mg/kg, time <=24; details: in vivo
[19] = Volume of distribution at steady state in BALB/c mouse at 1 mg/kg, iv measured upto 24 hrs by LC-MS/MS analysis; type: ADME, organism-based; details: in vivo, read-out: Vdss
[20] = AUC (0 to last) in Sprague-Dawley rat at 10 mg/kg, po measured upto 24 hrs by LC-MS/MS analysis; type: ADME, organism-based; set-up: route oral, dose 10 mg/kg, time <=24; details: in vivo
[21] = AUC (0 to last) in Sprague-Dawley rat at 2 mg/kg, iv measured upto 24 hrs by LC-MS/MS analysis; type: ADME, organism-based; set-up: route intravenous, dose 2 mg/kg, time <=24; details: in vivo
[22] = Volume of distribution at steady state in Sprague-Dawley rat at 2 mg/kg, iv measured upto 24 hrs by LC-MS/MS analysis; type: ADME, organism-based; details: in vivo, read-out: Vdss
[23] = Clearance in BALB/c mouse at 1 mg/kg, iv measured upto 24 hrs by LC-MS/MS analysis; details: in vivo
[24] = Half life in Sprague-Dawley rat at 2 mg/kg, iv measured upto 24 hrs by LC-MS/MS analysis; type: ADME, organism-based; details: in vivo
[25] = Oral bioavailability in BALB/c mouse at 2 mg/kg measured upto 24 hrs by LC-MS/MS analysis; type: ADME, organism-based; details: in vivo
[26] = AUC in BALB/c mouse 2 mg/kg, po measured upto 24 hrs by LC-MS/MS analysis; type: ADME, organism-based; set-up: route oral, dose 2 mg/kg, time <=24; details: in vivo

Tyrosine-protein kinase BTK, sequence (Q06187 whole entry): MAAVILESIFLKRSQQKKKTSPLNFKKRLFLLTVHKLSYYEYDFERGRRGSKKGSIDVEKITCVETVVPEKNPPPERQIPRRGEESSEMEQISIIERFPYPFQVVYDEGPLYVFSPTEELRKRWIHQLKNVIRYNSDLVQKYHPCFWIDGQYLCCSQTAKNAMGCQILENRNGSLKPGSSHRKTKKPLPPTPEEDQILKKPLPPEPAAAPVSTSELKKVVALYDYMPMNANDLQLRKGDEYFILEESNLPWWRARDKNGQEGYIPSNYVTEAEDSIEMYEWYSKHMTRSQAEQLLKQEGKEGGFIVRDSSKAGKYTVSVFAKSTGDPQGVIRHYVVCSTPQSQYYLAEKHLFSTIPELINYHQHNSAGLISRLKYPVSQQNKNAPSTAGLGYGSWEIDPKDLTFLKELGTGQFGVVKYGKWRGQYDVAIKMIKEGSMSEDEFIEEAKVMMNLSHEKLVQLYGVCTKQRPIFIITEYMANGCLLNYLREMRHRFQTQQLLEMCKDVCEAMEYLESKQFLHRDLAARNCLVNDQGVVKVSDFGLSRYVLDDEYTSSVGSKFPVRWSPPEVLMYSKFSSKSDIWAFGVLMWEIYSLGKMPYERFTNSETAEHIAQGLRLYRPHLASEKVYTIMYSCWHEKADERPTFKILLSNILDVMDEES

Structure (SMILES): C=CC(=O)N1CCCCC(n2nc(-c3ccc(Oc4ccccc4)cc3)c3c(N)n[nH]c(=O)c32)C1 (stereo not drawn)
- IC50 [1]: 6.7 nM

Structure (SMILES): C=CC(=O)N1CC(n2nc(-c3ccc(Oc4ccccc4)cc3)c3c(N)n[nH]c(=O)c32)C1
- IC50 [1]: 9.8 nM

Structure (SMILES): C=CC(=O)N1CCC[C@@H](n2nc(-c3ccc(Oc4ccccc4)cc3)c3c(N)noc(=O)c32)C1
- IC50 [1]: > 1000 nM

Structure (SMILES): Nc1n[nH]c(=O)c2c1c(-c1ccc(Oc3ccccc3)cc1)nn2[C@@H]1CCCN(C(=O)/C=C/CN2CCOCC2)C1
- IC50 [1]: 13 nM

Structure (SMILES): C=CC(=O)N1CCC[C@@H](Nc2ncnc3[nH]c(=O)c(-c4ccc(Oc5ccccc5)cc4)cc23)C1
- IC50 [1]: > 10000 nM

Structure (SMILES): C=CC(=O)N1CC2(CC(n3nc(-c4ccc(Oc5ccccc5)cc4)c4c(N)n[nH]c(=O)c43)C2)C1
- IC50 [1]: 46 nM

Structure (SMILES): C=CC(=O)N1CCC[C@@H](Nc2ncnc3[nH]c4ccc(Oc5ccccc5)cc4c(=O)c23)C1
- IC50 [1]: > 10000 nM

Structure (SMILES): C=CC(=O)N1CCC[C@@H](n2nc(-c3ccc(Oc4ccccc4)cc3)c3c(N)n[nH]c(=O)c32)C1
- fraction unbound at 4 h, 2 µM [2]: 0.047
- Activity [3]: Non-Toxic
- fraction unbound at 4 h, 2 µM [4]: 0.003
- IC50 [5]: 39600 nM
- Cmax ([6]; Sprague-Dawley, read-out: Cmax): 466 ng/mL
- fraction unbound at 4 h, 2 µM [7]: 0.025
- IC50 [8]: > 100000 nM
- Activity [9]: Dose-dependent effect
- bioavailability [10]: 23.7%
- IC50 [11]: 37300 nM
- clearance [12]: 54.6 mL/min/kg
- IC50 [13]: > 100000 nM
- Activity [14]: Non-Toxic
- IC50 [15]: 43900 nM
- Cmax [16]: 252 nM
- half-life [17]: 25.2 min
- AUC(0-t) at 24 h [18]: 576 ng·h/mL
- Vd [19]: 0.82 L/kg
- AUC(0-t) at 24 h [20]: 642 ng·h/mL
- AUC(0-t) at 24 h ([21]; Sprague-Dawley): 604 ng·h/mL
- Vd [22]: 1.55 L/kg
- clearance [23]: 31.3 mL/min/kg
- IC50 [1]: 2.1 nM
- half-life ([24]; Sprague-Dawley): 19.2 min
- bioavailability [25]: 11.2%
- AUC at 24 h [26]: 128 ng·h/mL

Structure (SMILES): CC#CC(=O)N1CCC[C@@H](n2nc(-c3ccc(Oc4ccccc4)cc3)c3c(N)n[nH]c(=O)c32)C1
- IC50 [1]: 12 nM

Structure (SMILES): C=CC(=O)N1CCC[C@@H](n2nc(-c3ccc(Oc4ccccc4)cc3)c3c(N)ncnc32)C1 [IBRUTINIB]
- fraction unbound at 4 h, 2 µM [2]: 0.038
- fraction unbound at 4 h, 2 µM [4]: 0.022
- Cmax ([6]; 24 h): 150 ng/mL
- fraction unbound at 4 h, 2 µM [7]: 0.031
- bioavailability [10]: 10.3%
- Cmax [16]: 55.3 nM
- half-life [17]: 20.4 min
- AUC(0-t) at 24 h [18]: 628 ng·h/mL
- AUC(0-t) at 24 h [20]: 318 ng·h/mL
- AUClast ([21]; 24 h): 643 ng·h/mL
- t1/2 ([24]; 2 mg/kg, 24 h): 19.2 min
- bioavailability [25]: 1.8%
- AUC at 24 h [26]: 21.4 ng·h/mL

Structure (SMILES): C=CC(=O)N1CCC[C@@H](n2nc(-c3ccc(Oc4ccccc4)cc3)c3c(N)nn(CC(F)(F)F)c(=O)c32)C1
- IC50 [1]: > 1000 nM

Structure (SMILES): CN(C)C/C=C/C(=O)N1CCC[C@@H](n2nc(-c3ccc(Oc4ccccc4)cc3)c3c(N)n[nH]c(=O)c32)C1
- IC50 [1]: 2.6 nM

Structure (SMILES): C=CC(=O)NC1CCC[C@@H](n2nc(-c3ccc(Oc4ccccc4)cc3)c3c(N)n[nH]c(=O)c32)C1 (stereo partly drawn)
- IC50 [1]: 10 nM

Structure (SMILES): C=CC(=O)N1CCC[C@@H](Nc2ncnc(N)c2-n2ncc3cc(Oc4ccccc4)ccc32)C1
- IC50 [1]: 1670 nM

Structure (SMILES): C=CC(=O)N1CCC[C@@H](n2nc(-c3ccc(Oc4ccccc4)cc3)c3c(N)nn(CC)c(=O)c32)C1
- IC50 [1]: > 1000 nM

Structure (SMILES): CN(C)C/C=C/C(=O)N(C)CCn1nc(-c2ccc(Oc3ccccc3)cc2)c2c(N)n[nH]c(=O)c21
- IC50 [1]: 35 nM

Structure (SMILES): C=CC(=O)N1CCCC(n2nc(-c3ccc(Oc4ccccc4)cc3)c3cc4c(N)noc4cc32)C1 (stereo not drawn)
- IC50 [1]: 4660 nM

Structure (SMILES): C=CC(=O)N1CCC[C@@H](Nc2ncnc(N)c2C(=O)c2ccc(Oc3ccccc3)cc2)C1
- IC50 [1]: 921 nM

Structure (SMILES): C=CC(=O)N1CC[C@@H](n2nc(-c3ccc(Oc4ccccc4)cc3)c3c(N)n[nH]c(=O)c32)C1
- Cmax [16]: 137 nM
- IC50 [1]: 1.4 nM
- AUC at 24 h [26]: 68 ng·h/mL

Structure (SMILES): N#C/C(=C\C1CC1)C(=O)N1CCC[C@@H](n2nc(-c3ccc(Oc4ccccc4)cc3)c3c(N)n[nH]c(=O)c32)C1
- IC50 [1]: 22 nM

Structure (SMILES): C=CS(=O)(=O)N1CCC[C@@H](n2nc(-c3ccc(Oc4ccccc4)cc3)c3c(N)n[nH]c(=O)c32)C1
- IC50 [1]: 4.2 nM

Structure (SMILES): C=CC(=O)N1CCCC(n2nc(-c3ccc(Oc4ccccc4)cc3)c3cc4c(N)ncnc4cc32)C1 (stereo not drawn)
- IC50 [1]: 1240 nM

Structure (SMILES): C=CC(=O)N[C@H]1CC[C@@H](n2nc(-c3ccc(Oc4ccccc4)cc3)c3c(N)n[nH]c(=O)c32)CC1
- Cmax [16]: 290 nM
- IC50 [1]: 1.6 nM
- AUC at 24 h [26]: 161 ng·h/mL

Structure (SMILES): C=CC(=O)N(C)CCn1nc(-c2ccc(Oc3ccccc3)cc2)c2c(N)n[nH]c(=O)c21
- Cmax [16]: 123 nM
- IC50 [1]: 1.2 nM
- AUC at 24 h [26]: 49.5 ng·h/mL

Structure (SMILES): C=CC(=O)N1CCC[C@@H](n2nc(-c3ccc(Oc4ccccc4)cc3)c3c(N)nn(C)c(=O)c32)C1
- IC50 [1]: 160 nM
